How the values were obtained:
[1] = Phase 1 multiple ascending dose study of grapiprant tablets: urine pharmacokinetics; type: in vivo, human; conditions: for CLR/Fu: mean; for AE / AE/Dose: urine; for AE / AE/Dose / CL renal: mean (SD); for CL renal: human, urine and serum
Description: Urine pharmacokinetic parameters can be used to assess the amount of parent drug excreted unchanged in the urine. The urine pharmacokinetic parameters can be calculated under the assumption that the amount of grapiprant excreted unchanged in the urine over the dosing interval was at steady state on the last day of dosing for the 14 day and 17 day oral administration described herein. As used herein, the term “AE” refers to the amount of parent drug excreted from 0-12 hours post dose on day 14 or day 17, calculated by (Urine Grapiprant Concentration×Urine Volume). As used herein, the term “AE/Dose” refers to percent of Dose renally excreted unchanged on day 14 or day 17, calculated by (AE/Dose)×100. As used herein, the term “CLR” refers to renal clearance on day 14 or day 17, calculated by (AE/AUCτ). As used herein, the term “CLR/Fu” refers to renal clearance of unbound drug, calculated by (CLR/Fu), where the fraction of drug in the serum not bound to proteins (Fu) is determined from in vitro human serum protein binding data.
Serial urine samples for PK evaluations of grapiprant were collected on Day 14 for up to 48 hours postdose (Cohorts 1-3) or on Day 17 for up to 24 hours postdose (Cohorts 5 and 6).
Grapiprant was extracted from the urine by protein precipitation, and then analyzed by a validated LC/MS/MS method. The dynamic range of the assay was 1.00 to 600 μg/mL. The following parameters were calculated under the assumption that the amount of grapiprant excreted unchanged in the urine over the dosing interval was at steady state on the 14th day of dosing: amount of parent drug excreted (AE), percent of dose renally excreted unchanged (AE/dose), renal clearance (CLR), and renal clearance of unbound drug (CLR/Fu).

[2] = Phase 1 crossover food effect study of 375 mg grapiprant tablets: safety; type: in vivo, human; conditions: for subjects with treatment-emergent adverse events / treatment-emergent adverse events: 12 subjects
Description: This study was a randomized, open-label, single dose, 2-period crossover design. Each subject participated in 2 study periods. In each study period, subjects received a dose of 375 mg administered as 3×125 mg tablets of grapiprant under fasted or fed conditions in a crossover manner according to a randomized dosing sequence. The fed condition consisted of a standardized high-fat meal. Following an initial screening period of no longer than 28 days, 12 eligible subjects were to be randomized to the 2 treatment sequences and 2 treatment period sessions as shown in Table 6-1.
All subjects were evaluated for safety, which was assessed by adverse events either spontaneously reported or elicited by non-leading questions from study staff, clinical observations, safety laboratory tests, vital signs, 12-lead ECGs, concomitant medication assessment, physical examination, and fecal occult blood tests.

[3] = Phase 1 single ascending dose study of grapiprant OPC: safety and tolerability; type: in vivo
Description: Eligible subjects were to be enrolled into 8 sequential cohorts, corresponding to the planned dose levels of 1 mg, 3 mg, 10 mg, 30 mg, 100 mg, 300 mg, 600 mg, and 1000 mg. […] After determining a maximum tolerated dose (MTD), or after completing the highest dose cohort if a MTD was not determined, Cohort 11 would be enrolled to increase the number of subjects evaluated at the MTD (or the highest dose).
In each dosing period, subjects were confined to the Clinical Research Unit (CRU) for approximately 60 hours (from approximately 36 hours predose through 24 hours postdose), and were instructed to return to the study site at 48 hours postdose for collection of blood samples for safety and pharmacokinetic evaluations. Subjects had triplicate ECG measurements made at select time-points on Day 0 (to provide a time-matched baseline) and through 24 hours postdose. Continuous cardiac monitoring by telemetry was performed for 12 hours postdose (or up to 24 hours, if warranted, based on the pharmacokinetic data). Creatine phosphokinase (CPK; total CPK and CPK-MB isoenzyme) and troponin I levels were monitored predose and at 12 and 24 hours postdose. In each dosing period, blood samples were collected predose and at 0.5, 1, 1.5, 2, 2.5, 3, 4, 6, 8, 12, 16, 24, and 48 hours postdose for pharmacokinetic evaluation. Fecal occult blood was monitored predose and through 48 hours postdose. Urine was collected through 24 hours postdose for exploratory biotransformation analyses. Since grapiprant may be a substrate of efflux transporters, genotyping for P-gp, an efflux transporter, was also planned for this study.
Safety: All subjects were evaluated for safety. Subjects were queried regarding adverse events (AEs) at 24 hours prior to dosing, 0 hours predose (baseline), and 1, 2, 4, 8, and 12 hours postdose. A limited physical examination, clinical laboratory tests, and fecal occult blood test were performed 24 hours prior to dosing. Vital signs measurements and 12-lead ECGs were performed in triplicate (approximately 2 minutes apart) at specified intervals in the 24 hours before dosing, 0 hours (predose), and at 0.5, 1, 1.5, 2, 3, 4, 8, and 12 hours postdose. Continuous cardiac telemetry monitoring was started at 1 hour postdose and continued for 12 hours postdose Fecal occult blood was monitored for 48 hours postdose.

[4] = 50 mg BID (n = 8), after 14 days of multiple oral dosing, healthy adults
[5] = 150 mg BID (n = 9), after 14 days of multiple oral dosing, healthy adults
[6] = 250 mg BID (Elderly) (n = 14), after 14 days of multiple oral dosing (Day 17)
[7] = 300 mg BID (n = 9), after 14 days of multiple oral dosing, healthy adults

CCc1nc2c(C)nc(C)cc2n1-c1ccc(CCNC(=O)NS(=O)(=O)c2ccc(C)cc2)cc1 [Grapiprant, N-((4-(2-ethyl-4,6-dimethyl-1H-imidazo[4,5-c]pyridin-1-yl)phenethyl)carbamoyl)-4-methylbenzenesulfonamide]
CLR/Fu [1, 4]: 6120 mL/min
AE [1, 4]: 10.6 (3.18) mg
AE/Dose [1, 4]: 21.2 (6.37) %
CLR/Fu [1, 5]: 6000 mL/min
AE [1, 5]: 33.3 (11.2) mg
AE/Dose [1, 5]: 22.2 (7.48) %
CLR/Fu [1, 6]: 2720 mL/min
AE [1, 6]: 57.9 (18.7) mg
AE/Dose [1, 6]: 23.2 (7.48) %
CLR/Fu [1, 7]: 4840 mL/min
AE [1, 7]: 82.4 (27.1) mg
AE/Dose [1, 7]: 27.5 (9.05) %
renal clearance corrected for protein binding compared with GFR ([1]; healthy and elderly subjects): much greater than the glomerular filtration rate
CL renal [1, 4]: 56.3 mL/min
CL renal [1, 5]: 55.2 mL/min
CL renal [1, 6]: 25 mL/min
CL renal [1, 7]: 44.5 mL/min
subjects with treatment-emergent adverse events ([2]; 375 mg tablet-fasted treatment): 5 subjects
treatment-emergent adverse events ([2]; 375 mg tablet-fasted treatment): 7 events
subjects with treatment-emergent adverse events ([2]; 375 mg tablet-fed treatment): 4 subjects
treatment-emergent adverse events ([2]; 375 mg tablet-fed treatment): 5 events
intensity of adverse events ([2]; 375 mg, after both treatments): mild in intensity
QTc ([2]; 375 mg, fasted and fed): no subjects had maximum QTc increases from baseline of ≥30 msec
clinical laboratory tests or vital sign measurements ([2]; 375 mg, fasted and fed): No subjects had clinically significant changes from baseline
deaths, serious adverse events, withdrawals ([2]; 375 mg, fasted and fed): no deaths, serious adverse events, or withdrawals due to adverse events
tolerability ([2]; 375-mg dose of tablets, fasted and fed conditions, healthy adults): well-tolerated
subjects reporting abdominal pain ([3]; 30 mg): 1 subject
SAEs ([3]; 1 subject at 600 mg (not related), 1 each at 1500 mg and 2000 mg): Three subjects experienced SAEs
subjects reporting abdominal pain ([3]; 1500 mg): 2 subjects
incidence of AEs ([3]; 1500 mg treatment group): 4 of 6 subjects
subjects reporting abdominal pain ([3]; 2000 mg): 4 subjects
incidence of AEs ([3]; 2000 mg treatment group): 5 of 6 subjects
serum creatinine and BUN (COSTART term: acute renal failure) ([3]; 2 subjects, 1 each at 1500 mg and 2000 mg): mild, treatment-related elevations in serum creatinine and BUN
subjects experiencing AEs ([3]; 26 of the 61 subjects treated, single doses 1 mg to 2000 mg): 43%
deaths or discontinuations due to AEs ([3]; all dose levels): No deaths or discontinuations due to AEs
fecal occult blood ([3]; all dose levels): No positive results for fecal occult blood tests
vital signs measurements, cardiac telemetry, ECG parameters ([3]; all dose levels): No clinically important, study drug-related changes
subjects with treatment-related abdominal pain ([3]; among the 12 subjects who received 1500 or 2000 mg): 6 subjects
tolerability ([3]; single doses ranging from 1 mg to 1000 mg): generally well tolerated

— US20210353648A1, “GRAPIPRANT UNIT DOSAGE FORMS” (Arrys Therapeutics, Inc., priority 2018, published 2021)
